In one test the target is GST-MCL-1 (Homo sapiens (Human), UniProt Q07820). The experiment in a line: TR-FRET MCL-1 binding assay (competition with probe F-Bak). On the procedure:
For the assay, an acoustic dispenser was used to prepare dilution series from 10 mM test compounds in 100% DMSO and directly transfer 160 nL into low volume 384-well assay plates. 8 μL of a protein/probe/antibody mix was then added to each well resulting in final concentrations listed below: Test compound: 11 three-fold dilutions beginning at 25 μM
The samples were then mixed on a shaker for 1 minute and incubated for an additional 2 hours at room temperature. For each assay plate, a probe/antibody and protein/antibody/probe mixture were included as a negative and a positive control, respectively. Fluorescence was measured on the Envision (Perkin Elmer) using a 340/35 nm excitation filter and 520/525 (F-Bak) and 495/510 nm (Tb-labeled anti-his antibody) emission filters. […] The TR-FRET assay can be performed in the presence of varying concentrations of human serum (HS) or fetal bovine serum (FBS). Compounds were tested both without HS and in the presence of 10% HS.

Test [1] concerns AMO-1 human multiple myeloma tumor cell line. The experiment in a line: AMO-1 cell viability assay (CellTiter-Glo). The following applies: AMO1, read-out: AMO-1 Viability IC50 (μM), 10% FBS, 24 hours of compound treatment. In kind it is cell-based. A general note: ATP-based viability assays read luminescence as a measure of living cells.
Test [2] deals with NCI-H929 human multiple myeloma tumor cell line. The experiment in a line: NCI-H929 cell viability assay (CellTiter-Glo). In kind it is cell-based. The following applies: NCI-H929, read-out: H929 Viability IC50 (μM), 10% FBS, 24 hours of compound treatment.
Where [3] appears, read: read-out: MCL-1 Binding Ki (nM, 10% HS), in the presence of 10% HS.
[4] abbreviates: without HS, read-out: MCL-1 Binding Ki.

Molecules are shown by their SMILES. Where two headings read alike, the source gives them in different places.

For orientation: Ki means a dissociation constant, usually derived from enzyme kinetics or from competition with a known ligand. By IC50 is commonly meant the point on the concentration scale where inhibition reaches its midpoint.

Chain of GST-MCL-1 (Q07820 whole entry): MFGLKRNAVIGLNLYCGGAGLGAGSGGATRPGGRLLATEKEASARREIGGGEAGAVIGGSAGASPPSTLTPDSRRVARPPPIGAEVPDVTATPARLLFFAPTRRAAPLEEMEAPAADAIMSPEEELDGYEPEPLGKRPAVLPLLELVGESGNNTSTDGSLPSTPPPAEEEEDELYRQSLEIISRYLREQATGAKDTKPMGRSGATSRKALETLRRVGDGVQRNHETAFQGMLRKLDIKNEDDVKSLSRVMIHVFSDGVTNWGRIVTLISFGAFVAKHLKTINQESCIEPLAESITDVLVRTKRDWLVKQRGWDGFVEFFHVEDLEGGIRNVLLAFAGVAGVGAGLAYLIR

With `Cc1c(Cl)c2c(Cl)c(C)c1-c1c(-c3ccc(F)cc3)sc3ncnc(c13)O[C@@H](C(=O)O)Cc1cc(ccc1OCc1cc(-c3ccc(OC[C@H]4COCCO4)cc3)ncn1)OC[C@@H](CN1CCN(C)CC1)O2` [Example 31, (7R,16R)-19,23-dichloro-10-{[6-(4-{[(2R)-1,4-dioxan-2-yl]methoxy}phenyl)pyrimidin-4-yl]methoxy}-1-(4-fluorophenyl)-20,22-dimethyl-16-[(4-methylpiperazin-1-yl)methyl]-7,8,15,16-tetrahydro-18,21-etheno-13,9-(metheno)-6,14,17-trioxa-2-thia-3,5-diazacyclononadeca[1,2,3-cd]indene-7-carboxylic acid], the results for the Ki at GST-MCL-1 (setting [3]) and on GST-MCL-1 (setting [4]) were 5.27 nM and 0.373 nM, respectively. Besides, the results for the IC50 in test [1] and in test [2] were 0.00419 µM and 0.011 µM, respectively.

For `Cc1c(Cl)c2c(Cl)c(C)c1-c1c(-c3ccc(F)cc3)sc3ncnc(c13)O[C@@H](C(=O)O)Cc1cc(ccc1OCc1ccnc(C3=CC[C@](F)(COC[C@H]4COCCO4)CC3)n1)OC[C@@H](CN1CCN(C)CC1)O2` [Example 40, (7R,16R)-19,23-dichloro-10-({2-[(4S)-4-({[(2R)-1,4-dioxan-2-yl]methoxy}methyl)-4-fluorocyclohex-1-en-1-yl]pyrimidin-4-yl}methoxy)-1-(4-fluorophenyl)-20,22-dimethyl-16-[(4-methylpiperazin-1-yl)methyl]-7,8,15,16-tetrahydro-18,21-etheno-13,9-(metheno)-6,14,17-trioxa-2-thia-3,5-diazacyclononadeca[1,2,3-cd]indene-7-carboxylic acid], the figures for the Ki at GST-MCL-1 (setting [3]) and at GST-MCL-1 (setting [4]) were 0.63 nM and 0.014 nM, respectively. For the same compound, the IC50 stood at 0.000352 µM in test [1] and 0.000271 µM in test [2].

Turning to `Cc1c(Cl)c2c(Cl)c(C)c1-c1c(C3=CCCC3)sc3ncnc(c13)O[C@@H](C(=O)O)Cc1cc(ccc1OCc1ccnc([C@H]3CC[C@@](F)(COC[C@@H]4COCCO4)CC3)n1)OC[C@@H](CN1CCN(C)CC1)O2` [Example 37, (7R,16R)-19,23-dichloro-1-(cyclopent-1-en-1-yl)-10-({2-[(1S,4r)-4-({[(2S)-1,4-dioxan-2-yl]methoxy}methyl)-4-fluorocyclohexyl]pyrimidin-4-yl}methoxy)-20,22-dimethyl-16-[(4-methylpiperazin-1-yl)methyl]-7,8,15,16-tetrahydro-18,21-etheno-13,9-(metheno)-6,14,17-trioxa-2-thia-3,5-diazacyclononadeca[1,2,3-cd]indene-7-carboxylic acid], the results for the Ki on GST-MCL-1 (setting [3]) and on GST-MCL-1 (setting [4]) were 0.63 nM and 0.051 nM, respectively. The IC50 in test [1] was 0.000187 µM; in test [2], 0.00053 µM.

As to `Cc1c(Cl)c2c(Cl)c(C)c1-c1c(-c3ccc(F)cc3)sc3ncnc(c13)O[C@@H](C(=O)O)Cc1cc(ccc1OCc1ccnc(N3CC(COC[C@@H]4COCCO4)C3)n1)OC[C@@H](CN1CCN(C)CC1)O2` [Example 13, (7R,16R)-19,23-dichloro-10-({2-[3-({[(2R)-1,4-dioxan-2-yl]methoxy}methyl)azetidin-1-yl]pyrimidin-4-yl}methoxy)-1-(4-fluorophenyl)-20,22-dimethyl-16-[(4-methylpiperazin-1-yl)methyl]-7,8,15,16-tetrahydro-18,21-etheno-9,13-(metheno)-6,14,17-trioxa-2-thia-3,5-diazacyclononadeca[1,2,3-cd]indene-7-carboxylic acid], the Ki was determined as 1.07 nM at GST-MCL-1 (setting [3]) and 0.079 nM at GST-MCL-1 (setting [4]). For the same compound, the IC50 in test [1] was found to be 0.00126 µM; in test [2], 0.00311 µM.

Regarding `Cc1c(Cl)c2c(Cl)c(C)c1-c1c(-c3ccc(F)cc3)sc3ncnc(c13)O[C@@H](C(=O)O)Cc1cc(ccc1OCc1ccnc(C3=CC[C@](F)(COC[C@@H]4COCCO4)CC3)n1)OC[C@@H](CN1CCN(C)CC1)O2` [Example 45, (7R,16R)-19,23-dichloro-10-({2-[(4S)-4-({[(2S)-1,4-dioxan-2-yl]methoxy}methyl)-4-fluorocyclohex-1-en-1-yl]pyrimidin-4-yl}methoxy)-1-(4-fluorophenyl)-20,22-dimethyl-16-[(4-methylpiperazin-1-yl)methyl]-7,8,15,16-tetrahydro-18,21-etheno-13,9-(metheno)-6,14,17-trioxa-2-thia-3,5-diazacyclononadeca[1,2,3-cd]indene-7-carboxylic acid], the Ki on GST-MCL-1 (setting [3]) came out at 0.16 nM; on GST-MCL-1 (setting [4]) it was 0.012 nM. For the same compound, the IC50 in test [1] was 0.000249 µM; in test [2], 0.000258 µM.

As for `Cc1c(Cl)c2c(Cl)c(C)c1-c1c(-c3ccc(F)cc3)sc3ncnc(c13)O[C@@H](C(=O)O)Cc1cc(ccc1OCc1ccnc([C@H]3CC[C@@](F)(COC[C@H]4COCCO4)CC3)n1)OC[C@@H](CN1CCN(C)CC1)O2` [Example 47, (7R,16R)-19,23-dichloro-10-({2-[(1R,4r)-4-({[(2R)-1,4-dioxan-2-yl]methoxy}methyl)-4-fluorocyclohexyl]pyrimidin-4-yl}methoxy)-1-(4-fluorophenyl)-20,22-dimethyl-16-[(4-methylpiperazin-1-yl)methyl]-7,8,15,16-tetrahydro-18,21-etheno-13,9-(metheno)-6,14,17-trioxa-2-thia-3,5-diazacyclononadeca[1,2,3-cd]indene-7-carboxylic acid], the Ki stood at 0.521 nM at GST-MCL-1 (setting [3]) and 0.0133 nM at GST-MCL-1 (setting [4]). For the same compound, the values for the IC50 in test [1] and in test [2] were 0.000463 µM and 0.000344 µM, respectively.

Turning to `Cc1c(Cl)c2c(Cl)c(C)c1-c1c(C3=CCCC3)sc3ncnc(c13)O[C@@H](C(=O)O)Cc1cc(ccc1OCc1ccnc(C3=CC[C@@](F)(COC[C@@H]4COCCO4)CC3)n1)OC[C@@H](CN1CCN(C)CC1)O2` [Example 38, (7R,16R)-19,23-dichloro-1-(cyclopent-1-en-1-yl)-10-({2-[(4R)-4-({[(2S)-1,4-dioxan-2-yl]methoxy}methyl)-4-fluorocyclohex-1-en-1-yl]pyrimidin-4-yl}methoxy)-20,22-dimethyl-16-[(4-methylpiperazin-1-yl)methyl]-7,8,15,16-tetrahydro-18,21-etheno-13,9-(metheno)-6,14,17-trioxa-2-thia-3,5-diazacyclononadeca[1,2,3-cd]indene-7-carboxylic acid], the results for the Ki on GST-MCL-1 (setting [3]) and on GST-MCL-1 (setting [4]) were 0.63 nM and 0.036 nM, respectively. Further, the values for the IC50 in test [1] and in test [2] were 0.000267 µM and 0.000748 µM, respectively.

`Cc1c(Cl)c2c(Cl)c(C)c1-c1c(-c3ccc(F)cc3)sc3ncnc(c13)O[C@@H](C(=O)O)Cc1cc(ccc1OCc1ccnc(-c3ccc(OC[C@@H]4COCCO4)nc3)n1)OC[C@@H](CN1CCN(C)CC1)O2` [Example 6, (7R,16R)-19,23-dichloro-10-{[2-(6-{[(2S)-1,4-dioxan-2-yl]methoxy}pyridin-3-yl)pyrimidin-4-yl]methoxy}-1-(4-fluorophenyl)-20,22-dimethyl-16-[(4-methylpiperazin-1-yl)methyl]-7,8,15,16-tetrahydro-18,21-etheno-13,9-(metheno)-6,14,17-trioxa-2-thia-3,5-diazacyclononadeca[1,2,3-cd]indene-7-carboxylic acid]: the Ki at GST-MCL-1 (setting [3]) is 6.09 nM; on GST-MCL-1 (setting [4]), 0.926 nM. Further, the IC50 in test [1] is 0.000135 µM; in test [2] it was 0.000359 µM.

The values above are taken from patent US10676485B2, “Macrocyclic MCL-1 inhibitors and methods of use” (AbbVie Inc., priority 2017, dated 2020).
